Test results: ChEMBL document CHEMBL1201862, “PubChem BioAssay data set” (2004)
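Briefly, cells in 96-well plates were exposed to five compound concentrations for 48 h, and endpoints were estimated by linear interpolation. GI50 marks 50% less growth.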 The source made the active and inactive calls. Cut-off read from the data, not from the text of the source: active = GI50 up to about 1.1 µM and inactive = higher.

What was measured:
Test in all cases: NCI tumour cell line growth inhibition, 48 h
786-0 = test system: 786-0
A549 = test system: A549
ACHN = test system: ACHN
CAKI-1 = test system: CAKI-1
COLO 205 = test system: COLO 205
HOP-92 = test system: HOP-92
Hs-578T = test system: Hs-578T
M14 = test system: M14
MCF7 = test system: MCF7
MDA-N = test system: MDA-N
NCI-H522 = test system: NCI-H522
NCI/ADR-RES = test system: NCI/ADR-RES
OVCAR-4 = test system: OVCAR-4
PC-3 = test system: PC-3
SF-539 = test system: SF-539
SK-MEL-28 = test system: SK-MEL-28
SK-MEL-5 = test system: SK-MEL-5
SR = test system: SR
SW-620 = test system: SW-620
UACC-257 = test system: UACC-257

Measured: GI50

COc1c2c(cc3c1OCO3)[C@]13C=C[C@H](OC)C[C@H]1N(C2)CC3O (stereo not given in full)
inactive: 786-0 > 100 µM | A549 > 100 µM | ACHN > 100 µM | CAKI-1 > 100 µM | COLO 205 > 100 µM | HOP-92 > 100 µM | Hs-578T > 100 µM | M14 > 100 µM | MCF7 > 100 µM | MDA-N > 100 µM | NCI-H522 > 100 µM | NCI/ADR-RES > 100 µM | OVCAR-4 > 100 µM | PC-3 > 100 µM | SF-539 > 100 µM | SK-MEL-28 > 100 µM | SK-MEL-5 > 100 µM | SR 18.4 µM | SW-620 > 100 µM | UACC-257 > 100 µM

O=[N+]([O-])c1cccc(Cl)c1Oc1ccc(S(=O)(=O)N/C(=N\O)Nc2ccc(Cl)cc2)cc1
inactive: 786-0 12.9 µM | A549 13.9 µM | ACHN 14.1 µM | CAKI-1 9.46 µM | COLO 205 17.1 µM | HOP-92 4.76 µM | Hs-578T 5.79 µM | M14 14.2 µM | MCF7 13.3 µM | MDA-N 12.7 µM | NCI-H522 4.74 µM | NCI/ADR-RES 20.3 µM | OVCAR-4 7.1 µM | PC-3 11.5 µM | SF-539 14.6 µM | SK-MEL-28 15.1 µM | SK-MEL-5 11.9 µM | SR 6.14 µM | SW-620 15.1 µM | UACC-257 11.1 µM

Cc1ccc2c(O)cc(-c3cccs3)nc2n1
inactive: 786-0 15.1 µM | A549 9.79 µM | ACHN 33 µM | CAKI-1 15.4 µM | COLO 205 6.98 µM | HOP-92 57 µM | Hs-578T 11.6 µM | M14 6.59 µM | MCF7 3.86 µM | MDA-N 1.47 µM | NCI-H522 4.58 µM | NCI/ADR-RES 2.9 µM | OVCAR-4 > 90.6 µM | PC-3 11 µM | SF-539 8.49 µM | SK-MEL-28 7.33 µM | SK-MEL-5 4.72 µM | SR 2.05 µM | SW-620 3.07 µM | UACC-257 > 100 µM
